From US12059486B2, “Cosmetic compositions” (Rodan & Fields, LLC, priority 2021, dated 2024)

What was measured:
[1] = system: human epidermal melanocytes; test: Melanin content in human epidermal melanocytes; format: cell-based; details: 7 days
Method: Test materials were added to exponentially growing cultures and the experiment was terminated 7 days later.

[2] = Free radical scavenging activity (ABTS); format: biochemical; details: 0.06 mg/mL; expressed as % water control
Method: Free radical scavenging activity was tested of different experimental conditions expressed as % water control. The positive control, ascorbic acid (Ref. 5), reached the expected level of inhibitory activity technically validating the experiments.

[3] = system: Type I Collagen; test: Output of ECM components in adult human dermal fibroblast culture model (Method E): type I collagen; format: cell-based; details: 10 ng/mL; day 7; corrected for cell numbers, % of water control
Method: (§1) Method E: Metabolism, Proliferation and Output of ECM Components in the Adult Human Dermal Fibroblast Culture Model. Test materials were dissolved in sterile cell culture medium at ×2 highest concentration tested and samples were added in triplicates to exponentially growing adult human dermal fibroblasts (aHDF; 7,000 cells/well of a 96 well plate; p.7 Cell Applications, San Diego, CA, cat. #106-05a; lot #3014). Cultures were maintained in DMEM/10% FBS. At the end of the experiments (day 7), macromolecules of interest were quantified either in the cell culture medium (decorin, type I collagen, type III collagen and hyaluronate) or on fixed cells (total insoluble proteins and elastin), by ELISA and sulforhodamine B, as indicated in Tables II-IV. Total insoluble (cytoskeletal) proteins were quantified to determine the effect of test materials on cell proliferation (cell numbers or cell #) according to the method described by Voigt et al., 2005. These values were also used to standardize decorin, type I collagen, type III collagen, elastin and hyaluronate output data to cell numbers, using the Equation 1: (Standardized Cell #)=[macromolecule of interest raw read out value]/cell number raw read out value] […]
(§2) This standardization was performed separately for each well. […] All colorimetric measurements were performed using Molecular Devices microplate reader MAX190 and SoftMax3.1.2PRO software. […]

[4] = system: Type III collagen; test: Output of ECM components in adult human dermal fibroblast culture model (Method E): type III collagen; format: cell-based; details: 10 ng/mL; day 7; corrected for cell numbers, % of water control
Method: as §1, §2

[5] = system: decorin; test: Output of ECM components in adult human dermal fibroblast culture model (Method E): decorin; format: cell-based; details: 10 ng/mL; day 7; corrected for cell numbers, % of water control
Method: as §1, §2

[6] = system: elastin; test: Output of ECM components in adult human dermal fibroblast culture model (Method E): elastin; format: cell-based; details: 10 ng/mL; day 7; fixed cells; corrected for cell numbers, % of water control
Method: as §1, §2

[7] = system: hyaluronate; test: Output of ECM components in adult human dermal fibroblast culture model (Method E): hyaluronate; format: cell-based; details: 10 ng/mL; day 7; corrected for cell numbers, % of water control
Method: as §1, §2

[8] = system: soluble decorin; test: Soluble decorin in adult human dermal fibroblasts (Method F); format: cell-based; details: 10 ng/mL; day 7; standardized to cell numbers, % of water control
Method: (§3) Method F: Test materials were dissolved in sterile cell culture medium at x2 highest concentration tested and samples were added in triplicates to exponentially growing adult human dermal fibroblasts (7,000 cells/well of a 96 well plate; p.7 Cell Applications, San Diego, CA, cat. #106-05a; lot #3014). Cultures were maintained in DMEM/10%FBS. At the end of the experiment (day 7), decorin was quantified in the cell culture medium (soluble fraction) and on fixed cells (insoluble fraction) by ELISA. Total insoluble (cytoskeletal) proteins were quantified to determine the effect of test materials on cell proliferation (cell numbers or cell #) according to the method described by Voigt et al., 2005. These values were also used to standardize decorin output data to cell numbers, using Equation 1. This standardization was performed separately for each well. Each experimental condition and control was assayed at least in triplicates. The effect of test materials on mitochondrial metabolism was measured with the MTT assay, which measures the activity of mitochondrial dehydrogenases, such as succinate dehydrogenase, implicated in the respiratory electron transport chain in mitochondria (Berridge & Tan; 1993).

[9] = system: insoluble decorin; test: Insoluble decorin in adult human dermal fibroblasts (Method F); format: cell-based; details: 10 ng/mL; day 7; standardized to cell numbers, % of water control
Method: as §3

Q: What does the source list for `O=c1cc(CO)occ1O` [Ref. 4, Kojic acid]?
A: Melanin cell number-adjusted ([1]; 50 ug/mL): 103 % Control; Melanin cell number-adjusted ([1]; 200 ug/mL): 46 % Control

Q: Which ABTS [2] does the source give for `O=C1O[C@H]([C@@H](O)CO)C(O)=C1O` [Ref. 5, ascorbic acid] here?
A: 0 % Control

Q: What does the source list for basic fibroblast growth factor [bFGF]?
A: Type I Collagen [3]: 67 % CTR; Type III collagen [4]: 87 % CTR; decorin [5]: 57 % CTR; elastin [6]: 62 % CTR; Hyaluronian [7]: 72 % CTR; Soluble decorin [8]: 67 % CTR; Insoluble decorin [9]: 87 % CTR
